Laboratory results published in patent US12428406B2 (PMV Pharmaceuticals, Inc., priority 2019, dated 2025).

Each compound was assayed against T1, p53 Y220C (Homo sapiens, UniProt P04637, Y220C) (assay: In vitro DNA binding activity assay (HTRF / TR-FRET): stabilization of p53 Y220C and increase of its DNA binding activity). Details: recombinant His-tagged p53 Y220C DNA binding domain (aa 94-312), biotin-labeled consensus DNA, incubated at 27° C. or 29° C. for 60 min.
T1 construct: The recombinant protein was a truncation mutant containing only amino acids 94-312 of p53; made in house; host or cells: E. coli
Format: biochemical
Procedure, shortened: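 Stabilization of the mutant is inferred from increased binding of His-tagged p53 Y220C to a biotin-labeled consensus DNA, detected by HTRF with europium-streptavidin and APC-anti-His antibody. The concentration giving a 50% rise over compound-free binding is reported as SC150.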

T1 sequence (P04637 94-312, change not shown): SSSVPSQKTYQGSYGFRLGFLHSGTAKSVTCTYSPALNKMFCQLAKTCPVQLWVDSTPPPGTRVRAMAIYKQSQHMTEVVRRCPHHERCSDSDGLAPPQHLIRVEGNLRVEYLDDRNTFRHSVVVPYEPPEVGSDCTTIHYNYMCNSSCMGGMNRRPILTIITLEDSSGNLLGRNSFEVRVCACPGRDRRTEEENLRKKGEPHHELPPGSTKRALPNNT

SMILES	SC150 (concentration of the compound required to increase the DNA binding activity by 50%)
COCCN1CC[C@H](Nc2cccc3c2cc(C#CCNc2ccc(S(C)(=O)=O)cc2OC)n3CC(F)(F)F)[C@H](F)C1 [Compound 860A, N-[(3R,4S)-3-fluoro-1-(2-methoxyethyl)piperidin-4-yl]-2-{3-[(4-methanesulfonyl-2-methoxyphenyl)amino]prop-1-yn-1-yl}-1-(2,2,2-trifluoroethyl)-1H-indol-4-amine]	+ (+ = 0 μM ≤ SC150 < 0.05 μM)
CN1CC[C@@H](Nc2cccc3c2cc(C#CCNC(=O)c2ccn(C(C)(C)C)c2)n3CC(F)(F)F)[C@@H](F)C1 [Compound 955A, 1-tert-butyl-N-[3-(4-{[(3S,4R)-3-fluoro-1-methylpiperidin-4-yl]amino}-1-(2,2,2-trifluoroethyl)-1H-indol-2-yl)prop-2-yn-1-yl]-1H-pyrrole-3-carboxamide]	+ (+ = 0 μM ≤ SC150 < 0.05 μM)
COCCN1CC[C@@H](Nc2cccc3c2cc(C#CCNc2ccc(C(=O)OC)cc2OC)n3CC(F)(F)F)[C@@H](F)C1 [Compound 897A]	+ (+ = 0 μM ≤ SC150 < 0.05 μM)
CCNC(=O)c1ccc(NCC#Cc2cc3c(N[C@@H]4CCN(C)C[C@@H]4F)cccc3n2CC(F)(F)F)c(O)c1 [Compound 1060A, N-ethyl-4-{[3-(4-{[(3S,4R)-3-fluoro-1-methylpiperidin-4-yl]amino}-1-(2,2,2-trifluoroethyl)-1H-indol-2-yl)prop-2-yn-1-yl]amino}-3-hydroxybenzamide]	+ (+ = 0 μM ≤ SC150 < 0.05 μM)
CCOC(=O)c1ccc(NCC#Cc2cc3c(N[C@@H]4CCN(C)C[C@@H]4F)cccc3n2CC(F)(F)F)c(OC)c1 [Compound 839A, Ethyl 4-((3-(4-(((3S,4R)-3-fluoro-1-methylpiperidin-4-yl)amino)-1-(2,2,2-trifluoroethyl)-1H-indol-2-yl)prop-2-yn-1-yl)amino)-3-methoxybenzoate]	+ (+ = 0 μM ≤ SC150 < 0.05 μM)
COc1cc(S(C)(=O)=O)ccc1NCC#Cc1cc2c(N[C@H]3CCN(CC(N)=O)C[C@H]3F)cccc2n1CC(F)(F)F (racemic) [Compound 811A, rac-2-[(3R,4S)-3-fluoro-4-[(2-{3-[(4-methanesulfonyl-2-methoxyphenyl)amino]prop-1-yn-1-yl}-1-(2,2,2-trifluoroethyl)-1H-indol-4-yl)amino]piperidin-1-yl]acetamide]	+ (+ = 0 μM ≤ SC150 < 0.05 μM)
COc1cc(C(=O)NC(C)C)ccc1NCC#Cc1cc2c(N[C@H]3CCN(C)C[C@H]3F)cccc2n1CC(F)(F)F (racemic) [Compound 817A, rac-4-{[3-(4-{[(3R,4S)-3-fluoro-1-methylpiperidin-4-yl]amino}-1-(2,2,2-trifluoroethyl)-1H-indol-2-yl)prop-2-yn-1-yl]amino}-3-methoxy-N-(propan-2-yl)benzamide]	+ (+ = 0 μM ≤ SC150 < 0.05 μM)
COc1cc(C(=O)NC[C@H](O)CO)ccc1NCC#Cc1cc2c(N[C@@H]3CCN(C)C[C@@H]3F)cccc2n1CC(F)(F)F [Compound 964A, N-[(2S)-2,3-dihydroxypropyl]-4-{[3-(4-{[(3S,4R)-3-fluoro-1-methylpiperidin-4-yl]amino}-1-(2,2,2-trifluoroethyl)-1H-indol-2-yl)prop-2-yn-1-yl]amino}-3-methoxybenzamide]	+ (+ = 0 μM ≤ SC150 < 0.05 μM)
COc1cc(S(C)(=O)=O)ccc1NCC#Cc1cc2c(N[C@H]3CCN(C)C[C@H]3F)cc(F)cc2n1CC(F)(F)F (racemic) [Compound 836A, rac-6-fluoro-N-[(3R,4S)-3-fluoro-1-methylpiperidin-4-yl]-2-{3-[(4-methanesulfonyl-2-methoxyphenyl)amino]prop-1-yn-1-yl}-1-(2,2,2-trifluoroethyl)-1H-indol-4-amine]	+ (+ = 0 μM ≤ SC150 < 0.05 μM)
COCC(O)CN1CCC(Nc2cccc3c2cc(C#CCNc2ccc(S(=O)(=O)N(C)C)cc2OC)n3CC(F)(F)F)CC1 (centres unmarked) [Compound 622A]	+ (+ = 0 μM ≤ SC150 < 0.05 μM)
COCC(O)CN1CCC(Nc2cccc3c2cc(C#CCNc2ccc(S(C)(=O)=O)cc2)n3CC(F)(F)F)CC1 (centres unmarked) [Compound 672A, 1-{4-[(2-{3-[(4-methanesulfonylphenyl)amino]prop-1-yn-1-yl}-1-(2,2,2-trifluoroethyl)-1H-indol-4-yl)amino]piperidin-1-yl}-3-methoxypropan-2-ol]	+ (+ = 0 μM ≤ SC150 < 0.05 μM)
CN(C)CCOc1cc(S(C)(=O)=O)ccc1NCC#Cc1cc2c(NC3CCS(=O)(=O)CC3)cccc2n1CC(F)(F)F [Compound 1037A, 4-({2-[3-({2-[2-(dimethylamino)ethoxy]-4-methanesulfonylphenyl}amino)prop-1-yn-1-yl]-1-(2,2,2-trifluoroethyl)-1H-indol-4-yl}amino)-1λ^6-thiane-1,1-dione]	++ (++ = 0.05 μM ≤ SC150 < 0.1 μM)
CCOC(=O)c1ccc(NCC#Cc2cc3c(N[C@H]4CCN(C(C)C)C[C@H]4F)cccc3n2CC(F)(F)F)c(OC)c1 [Compound 825A]	+ (+ = 0 μM ≤ SC150 < 0.05 μM)
COCC(O)CN1CCC(Nc2cccc3c2cc(C#CCNc2ccc(S(=O)(=O)NC(C)=O)cc2OC)n3CC(F)(F)F)CC1 (centres unmarked) [Compound 606A, N-(4-{[3-(4-{[1-(2-hydroxy-3-methoxypropyl)pipcridin-4-yl]amino}-1-(2,2,2-trifluoroethyl)-1H-indol-2-yl)prop-2-yn-1-yl]amino}-3-methoxybenzenesulfonyl) acetamide]	+ (+ = 0 μM ≤ SC150 < 0.05 μM)
COCC(=O)N1CC[C@H](Nc2cccc3c2cc(C#CCNc2ccc(S(C)(=O)=O)cc2OC)n3CC(F)(F)F)[C@H](F)C1 [Compound 867A, 1-[(3R,4S)-3-fluoro-4-[(2-{3-[(4-methanesulfonyl-2-methoxyphenyl)amino]prop-1-yn-1-yl}-1-(2,2,2-trifluoroethyl)-1H-indol-4-yl)amino]piperidin-1-yl]-2-methoxyethan-1-one]	+ (+ = 0 μM ≤ SC150 < 0.05 μM)

Continued, values first:

SC150 (concentration of the compound required to increase the DNA binding activity by 50%)	SMILES
+ (+ = 0 μM ≤ SC150 < 0.05 μM)	COc1cc(S(C)(=O)=O)ccc1NCC#Cc1cc2c(N[C@@H]3CCC(O)C[C@@H]3F)cccc2n1CC(F)(F)F (stereo partly drawn) [Compound 43A, (3S,4R)-3-fluoro-4-[(2-{3-[(4-methanesulfonyl-2-methoxyphenyl)amino]prop-1-yn-1-yl}-1-(2,2,2-trifluoroethyl)-1H-indol-4-yl)amino]cyclohexan-1-ol]
+ (+ = 0 μM ≤ SC150 < 0.05 μM)	CNC(=O)c1ccc(NCC#Cc2cc3c(N[C@H]4CC[C@H](N5CCC6(CCOC6)CC5)CC4)cccc3n2CC(F)(F)F)c(OC)c1 [Compound 409A, 3-methoxy-N-methyl-4-{[3-(4-{[(1R,4R)-4-{2-oxa-8-azaspiro[4.5]decan-8-yl}cyclohexyl]amino}-1-(2,2,2-trifluoroethyl)-1H-indol-2-yl)prop-2-yn-1-yl]amino}benzamide]
+ (+ = 0 μM ≤ SC150 < 0.05 μM)	COCCN(C)S(=O)(=O)c1ccc(NCC#Cc2cc3c(NC4CCN(C)CC4)cccc3n2CC(F)(F)F)c(OC)c1 [Compound 477A, 3-methoxy-N-(2-methoxyethyl)-N-methyl-4-[(3-{4-[(1-methylpiperidin-4-yl)amino]-1-(2,2,2-trifluoroethyl)-1H-indol-2-yl}prop-2-yn-1-yl)amino]benzene-1-sulfonamide]
+ (+ = 0 μM ≤ SC150 < 0.05 μM)	CNC(=O)c1ccc(NCC#Cc2cc3c(N[C@H]4CC[C@@H](N5CC6(CCOCC6)C5)CC4)cccc3n2CC(F)(F)F)c(OC)c1 [Compound 296A, 3-methoxy-N-methyl-4-{[3-(4-{[(1S,4S)-4-{7-oxa-2-azaspiro[3.5]nonan-2-yl}cyclohexyl]amino}-1-(2,2,2-trifluoroethyl)-1H-indol-2-yl)prop-2-yn-1-yl]amino} benzamide]
+ (+ = 0 μM ≤ SC150 < 0.05 μM)	COc1cc(C(N)=O)ccc1NCC#Cc1cc2c(N[C@H]3CC[C@@H](N4CCOCC4)CC3)cccc2n1CC(F)(F)F [Compound 171A, 3-methoxy-4-{[3-(4-{[(1S,4S)-4-(morpholin-4-yl)cyclohexyl]amino}-1-(2,2,2-trifluoroethyl)-1H-indol-2-yl)prop-2-yn-1-yl]amino}benzamide]
+ (+ = 0 μM ≤ SC150 < 0.05 μM)	CCN(CC)[C@H]1CC[C@H](Nc2cccc3c2cc(C#CCNc2ccc(S(N)(=O)=O)cc2OC)n3CC(F)(F)F)CC1 [Compound 146A, 3-methoxy-4-{[3-(4-{[(1R,4R)-4-(diethyl-amino)cyclohexyl]amino}-1-(2,2,2-trifluoroethyl)-1H-indol-2-yl)prop-2-yn-1-yl]amino}benzene-1-sulfonamide]
+ (+ = 0 μM ≤ SC150 < 0.05 μM)	COc1cc(S(N)(=O)=O)ccc1NCC#Cc1cc2c(N[C@H]3CC[C@H](N4CC5(COC5)C4)CC3)cccc2n1CC(F)(F)F [Compound 205A, 3-methoxy-4-{[3-(4-{[(1S,4S)-4-{2-oxa-6-azaspiro[3.3]heptan-6-yl}cyclohexyl]amino}-1-(2,2,2-trifluoroethyl)-1H-indol-2-yl)prop-2-yn-1-yl]amino}benzene-1-sulfonamide]
+ (+ = 0 μM ≤ SC150 < 0.05 μM)	COc1cc(S(C)(=O)=O)ccc1NCC#Cc1cc2c(N[C@H]3CCN(C)C[C@@H]3O)cccc2n1CC(F)(F)F (racemic) [Compound 767A, rac-(3R,4R)-4-[(2-{3-[(4-methanesulfonyl-2-methoxyphenyl)amino]prop-1-yn-1-yl}-1-(2,2,2-trifluoroethyl)-1H-indol-4-yl)amino]-1-methylpiperidin-3-ol]
